Results from patent US10370401B2, “Substituted nucleosides, nucleotides and analogs thereof” (Alios BioPharma, Inc., priority 2013, dated 2019).
Where two headings read alike, the source gives them in different places.

Key:
[1] = biological target: human rhinovirus 16 polymerase (HRV16pol) (Human rhinovirus 16, UniProt Q82122); assay: biochemical; conditions: HRV16pol, 2.5 h at 30° C., mean of several independent experiments; read-out: IC50
[2] = biological target: dengue virus NS5 polymerase domain (DENVpol, serotype 2, New Guinea C strain) (Dengue virus type 2, UniProt P14340); assay: Dengue virus polymerase inhibition assay; format: biochemical; conditions: DENVpol serotype 2, 3 hours at 30° C., mean of several independent experiments
Procedure: The enzyme activity of dengue virus NS5 polymerase domain (DENVpol, serotype 2, New Guinea C strain) was measured as an incorporation of tritiated NMP into acid-insoluble RNA products. DENVpol assay reactions contained 100 nM recombinant enzyme, 50 nM heteropolymeric RNA, about 0.5 μCi tritiated NTP, 0.33 μM of competing cold NTP, 40 mM HEPES (pH 7.5), 3 mM dithiothreitol, and 2 mM MgCl2. Standard reactions were incubated for 3 hours at 30° C., in the presence of increasing concentration of inhibitor. At the end of the reaction, RNA was precipitated with 10% TCA, and acid-insoluble RNA products were filtered on a size exclusion 96-well plate. After washing of the plate, scintillation liquid was added and radiolabeled RNA products were detected according to standard procedures with a Trilux Topcount scintillation counter. The compound concentration at which the enzyme-catalyzed rate was reduced by 50% (IC50) was calculated by fitting the data to a non-linear regression (sigmoidal).

[3] = biological target: NS5B570-Con1 (Delta-21) (Hepatitis C virus genotype 1b, UniProt Q9WMX2); assay: biochemical; design: species or system HCV
[4] = test system: Human rhinovirus 1B; assay: Picornavirus assay (CPE, CellTiter-Glo, HeLa-OHIO cells); format: cell-based
[5] = test system: Dengue virus type 2 strain New Guinea C (NG-C) or Dengue virus type 4 strain H241; assay: Dengue virus cell-based assay (Huh-7.5 cells, CellTiter-Glo)
Procedure: The Dengue virus type 2 strain New Guinea C (NG-C) and the Dengue virus type 4 strain H241 were purchased from ATCC (Manassas, Va.; item numbers VR-1584 and VR-1490, respectively). 24 h prior to dosing, Huh-7.5 cells were plated in 96 well plates at a density of 1.5×10^5/mL in DMEM medium supplemented with 10% fetal bovine serum, 1% HEPES buffer, 1% Penicillin/Streptomycin and 1% non-essential amino acids (all Mediatech, Manassas, Va.). At the day of infection, serially diluted compounds were added to cells and incubated for 4 h. After the end of the 4 h pre-incubation period, cells were infected with either Dengue virus type 2 NG-C or Dengue virus type 4H241. The virus inoculum was selected to cause 80-90% cytopathic effect in five to six days. Infected cells were incubated for five (NG-C) to six (H241) days at 37° C., 5% CO2. To develop the assay, 100 μL media was replaced with 100 μl CellTiter-Glo® reagent (Promega, Madison, Wis.), and incubated for 10 mins at RT. Luminescence was measured on a Victor X3 multi-label plate reader. Potential compound cytotoxicity of was determined using uninfected parallel cultures.

[6] = test system: subgenomic HCV replicon; assay: HCV replicon assay (Huh-7, luciferase reporter); format: cell-based; conditions: Hepatitis C virus, Huh-7, 72 h
[7] = Cytotoxicity in HeLa OHIO host cell line; format: cell-based; conditions: human, HeLa-OHIO cells, n>5
[8] = test system: HRV-89; assay: Human rhinovirus strain panel assay, HRV-89; format: cell-based; conditions: Rhinovirus A, HRV89
[9] = Human rhinovirus 1B, HeLa-OHIO cells, 4 d at 33° C., read-out: EC50
[10] = Huh-7.5 cells, antiviral activity, dengue type (2 NG-C or 4 H241) not given, read-out: IC50
[11] = Rhinovirus A, 96 h, Human rhinovirus 1B, HeLa-OHIO cells, 4 d at 33° C., read-out: EC50

Sequence of human rhinovirus 16 polymerase (HRV16pol) (Q82122 1694-2153 limits assumed): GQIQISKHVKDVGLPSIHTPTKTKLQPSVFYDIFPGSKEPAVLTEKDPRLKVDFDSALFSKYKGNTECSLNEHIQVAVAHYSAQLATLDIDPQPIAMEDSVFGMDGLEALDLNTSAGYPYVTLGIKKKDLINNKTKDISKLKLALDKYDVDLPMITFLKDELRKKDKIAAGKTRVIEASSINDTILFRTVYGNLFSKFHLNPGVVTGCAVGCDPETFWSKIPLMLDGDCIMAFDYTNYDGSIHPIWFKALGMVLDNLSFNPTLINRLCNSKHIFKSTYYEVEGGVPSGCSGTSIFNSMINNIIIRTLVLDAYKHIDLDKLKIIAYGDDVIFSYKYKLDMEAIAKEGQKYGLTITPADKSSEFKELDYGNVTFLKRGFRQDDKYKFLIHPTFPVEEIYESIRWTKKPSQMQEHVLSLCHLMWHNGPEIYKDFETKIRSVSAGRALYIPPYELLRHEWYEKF

SMILES | IC50 [1] [nM] | IC50 [2] [nM] | IC50 ([5]; Dengue virus, Huh7.5) [nM] | further results
C[C@]1(F)[C@H](n2ccc(N)nc2=O)O[C@](F)(COP(=O)(O)OP(=O)(O)OP(=O)(O)O)[C@H]1O [compound 29] | < 1000 | < 1000 | – | –
C[C@]1(F)[C@H](n2ccc(=O)[nH]c2=O)O[C@](F)(COP(=O)(O)OP(=O)(O)OP(=O)(O)O)[C@H]1O [compound 147] | – | < 10000 | – | –
C[C@]1(F)[C@H](n2cnc3c(=O)[nH]c(N)nc32)O[C@](F)(COP(=O)(O)OP(=O)(O)OP(=O)(O)O)[C@H]1O [compound 19] | < 1000 | < 10000 | – | IC50 [3]: < 1000 nM
Nc1ccn([C@@H]2O[C@](CCl)(COP(=O)(O)OP(=O)(O)OP(=O)(O)O)[C@@H](O)[C@H]2O)c(=O)n1 [compound 164] | – | < 100000 | – | –
C[C@]1(Cl)[C@H](n2ccc(=O)[nH]c2=O)O[C@](F)(COP(=O)(O)OP(=O)(O)OP(=O)(O)O)[C@H]1O [compound 149] | – | < 10000 | – | IC50 [3]: < 1000 nM
C[C@@]1(O)[C@H](O)[C@@](CF)(COP(=O)(O)OP(=O)(O)OP(=O)(O)O)O[C@H]1n1cnc2c(=O)[nH]c(N)nc21 [compound 34] | < 1000 | < 1000 | – | IC50 [3]: < 1000 nM
C#C[C@]1(O)[C@H](n2cnc3c(OCC)nc(N)nc32)O[C@](F)(CO[P@](=O)(N[C@@H](C)C(=O)OC2CCCCC2)Oc2ccccc2)[C@H]1O [Compound 27] | – | – | – | EC50 [4, 9]: < 1000 nM; IC50 [5, 10]: < 10000 nM
CCOc1nc(N)nc2c1ncn2[C@@H]1O[C@]2(F)CO[P@](=O)(OC(C)C)O[C@H]2[C@@]1(C)F [Compound 86] | – | – | < 1000 | EC50 [4, 11]: 10000 to 100000 nM
CCOc1nc(N)nc2c1ncn2[C@@H]1O[C@](F)(CO[P@@](=O)(N[C@@H](C)C(=O)OC2CCCCC2)Oc2ccccc2)[C@@H](O)[C@@]1(C)F [Compound 26] | – | – | < 1000 | EC50 ([4]; Rhinovirus A, 96 h): 1000 to 10000 nM
CCOc1nc(N)nc2c1ncn2[C@@H]1O[C@](F)(COP(=O)(OCOC(=O)OC(C)C)OCOC(=O)OC(C)C)[C@@H](O)[C@@]1(C)O [Compound 55] | – | – | < 1000 | EC50 [4, 11]: < 1000 nM
C#C[C@]1(O)[C@H](n2cnc3c(=O)[nH]c(N)nc32)O[C@](F)(COP(=O)(O)OP(=O)(O)OP(=O)(O)O)[C@H]1F [compound 103] | < 1000 | < 1000 | – | IC50 [3]: < 1000 nM
C[C@]1(O)[C@H](n2ccc(N)nc2=O)O[C@](F)(COP(=O)(O)OP(=O)(O)OP(=O)(O)O)[C@H]1O [compound 124] | < 1000 | < 10000 | – | –
CCOc1nc(N)nc2c1ncn2[C@@H]1O[C@](F)(CO[P@](=O)(N[C@@H](C)C(=O)OC2CCCCC2)Oc2ccccc2)[C@@H](O)[C@@]1(C)F [Compound 25] | – | – | < 1000 | EC50 ([4]; Rhinovirus A, 96 h): < 1000 nM
C[C@H](NP(=O)(OC[C@@]1(F)O[C@@H](n2cnc3c(=O)[nH]c(N)nc32)[C@](C)(O)[C@@H]1F)Oc1ccccc1)C(=O)OC1CCCCC1 (stereo partly drawn) [Compound 14] | – | – | < 10000 | EC50 [6]: 10000 to 100000 nM; EC50 ([4]; Rhinovirus A, 96 h): 10000 to 100000 nM
C#C[C@]1(O)[C@H](n2cnc3c(OCC)nc(N)nc32)O[C@](F)(CO[P@@](=O)(N[C@@H](C)C(=O)OC2CCCCC2)Oc2ccccc2)[C@H]1O [Compound 28] | – | – | – | EC50 [4, 9]: < 1000 nM; IC50 [5, 10]: < 10000 nM
C[C@]1(O)[C@H](n2ccc(=O)[nH]c2=O)O[C@](F)(COP(=O)(O)OP(=O)(O)OP(=O)(O)O)[C@H]1O [Compound 110] | < 10000 | < 1000 | – | –
C[C@]1(O)[C@H](n2cnc3c(=O)[nH]c(N)nc32)O[C@](F)(COP(=O)(O)OP(=O)(O)OP(=O)(O)O)[C@H]1F [compound 101] | < 1000 | < 10000 | – | IC50 [3]: < 1000 nM

SMILES | IC50 [1] [nM] | IC50 [2] [nM] | IC50 ([5]; Dengue virus, Huh7.5) [nM] | further results
Nc1nc2c(ncn2[C@@H]2O[C@](F)(COP(=O)(O)OP(=O)(O)OP(=O)(O)O)[C@@H](O)[C@H]2F)c(=O)[nH]1 [compound 163] | – | < 10000 | – | –
C[C@@]1(F)[C@H](O)[C@@](CF)(COP(=O)(O)OP(=O)(O)OP(=O)(O)O)O[C@H]1n1cnc2c(=O)[nH]c(N)nc21 [compound 162] | < 1000 | < 10000 | – | IC50 [3]: 1000 to 10000 nM
CC(C)OC(=O)OCOP(=O)(OCOC(=O)OC(C)C)OC[C@@]1(CF)O[C@@H](n2ccc(=O)[nH]c2=O)[C@](C)(O)[C@@H]1OC(=O)C(N)C(C)C (stereo partly drawn) [Compound 160] | – | – | – | EC50 ([4]; Rhinovirus A, 96 h): < 1000 nM; CC50 [7]: > 100000 nM; EC50 [8]: 1000 to 2000 nM
C#C[C@]1(F)[C@H](n2cnc3c(=O)[nH]c(N)nc32)O[C@](F)(COP(=O)(O)OP(=O)(O)OP(=O)(O)O)[C@H]1O [compound 123] | < 1000 | < 10000 | – | –
CC(C)OC(=O)OCOP(=O)(OCOC(=O)OC(C)C)OC[C@@]1(F)O[C@@H](n2cnc3c(=O)[nH]c(N)nc32)[C@](C)(O)[C@@H]1O [Compound 46] | – | – | < 100000 | EC50 [4, 11]: < 1000 nM
C#C[C@]1(O)[C@H](n2ccc(=O)[nH]c2=O)O[C@](F)(COP(=O)(N[C@@H](C)C(=O)OC2CCCCC2)Oc2ccccc2)[C@H]1O (stereo partly drawn) [Compound 13] | – | – | < 1000 | EC50 ([4]; Rhinovirus A, 96 h): < 1000 nM
CCOc1nc(N)nc2c1ncn2[C@@H]1O[C@]2(F)CO[P@@](=O)(OC(C)C)O[C@H]2[C@@]1(C)O [Compound 89] | – | – | < 10000 | EC50 [4, 11]: 10000 to 100000 nM
C[C@@]1(O)[C@H](O)[C@@](CF)(COP(=O)(O)OP(=O)(O)OP(=O)(O)O)O[C@H]1n1ccc(N)nc1=O [compound 91] | < 10000 | < 100000 | – | IC50 [3]: < 1000 nM
CC(C)OC(=O)OCOP(=O)(OCOC(=O)OC(C)C)OC[C@@]1(F)O[C@@H](n2ccc(=O)[nH]c2=O)[C@](C)(F)[C@@H]1O [Compound 161] | – | – | < 10000 | EC50 [4, 11]: 1000 to 10000 nM
CCOc1nc(N)nc2c1ncn2[C@@H]1O[C@]2(F)CO[P@](=O)(OC(C)C)O[C@H]2[C@@]1(C)O [Compound 88] | – | – | < 10000 | EC50 [4, 11]: 10000 to 100000 nM
CC(C)OC(=O)OCOP(=O)(OCOC(=O)OC(C)C)OC[C@@]1(F)O[C@@H](n2ccc(=O)[nH]c2=O)[C@](C)(O)[C@@H]1O [Compound 9] | – | – | < 10000 | EC50 [4, 11]: < 1000 nM
C#C[C@]1(O)[C@H](n2ccc(=O)[nH]c2=O)O[C@](F)(COP(=O)(OCOC(=O)OC(C)C)OCOC(=O)OC(C)C)[C@H]1O [Compound 53] | – | – | < 10000 | EC50 [4, 11]: < 1000 nM
C#C[C@]1(O)[C@H](n2ccc(=O)[nH]c2=O)O[C@](F)(COP(=O)(O)OP(=O)(O)OP(=O)(O)O)[C@H]1O [compound 114] | < 1000 | < 10000 | – | –
C[C@@]1(O)[C@H](O)[C@@](CF)(COP(=O)(O)OP(=O)(O)OP(=O)(O)O)O[C@H]1n1ccc(=O)[nH]c1=O [compound 92] | < 1000 | < 10000 | – | IC50 [3]: < 1000 nM
CCOc1nc(N)nc2c1ncn2[C@@H]1O[C@](F)(COP(=O)(N[C@@H](C)C(=O)OC2CCCCC2)Oc2ccccc2)[C@@H](O)[C@@]1(C)O (stereo partly drawn) [Compound 10] | – | – | < 1000 | EC50 ([4]; Rhinovirus A, 96 h): < 1000 nM
C#C[C@]1(O)[C@H](n2cnc3c(=O)[nH]c(N)nc32)O[C@](F)(COP(=O)(O)OP(=O)(O)OP(=O)(O)O)[C@H]1O [compound 115] | < 1000 | < 1000 | – | –
CCOc1nc(N)nc2c1ncn2[C@@H]1O[C@](F)(COP(=O)(N[C@@H](C)C(=O)OC2CCCCC2)Oc2ccccc2)[C@@H](F)[C@@]1(C)O (stereo partly drawn) [Compound 16] | – | – | < 10000 | EC50 [6]: 1000 to 10000 nM; EC50 ([4]; Rhinovirus A, 96 h): 1000 to 10000 nM
